Reference: ChEMBL document CHEMBL1155658, “Isolation and structures of schleicherastatins 1-7 and schleicheols 1 and 2 from the teak forest medicinal tree Schleichera oleosa” (2000)
Converted amounts (≈) assume the structure as drawn.

How the values were obtained:
Format in all cases: functional
P388 = assay: Growth inhibition of mouse P388 cells
SF-295 = assay: Growth inhibition of human SF295 cells
KM-20L2 = assay: Growth inhibition of human KM20L2 cells
NCI-H460 = assay: Growth inhibition of human NCI-H460 cells
OVCAR-3 = assay: Growth inhibition of human OVCAR-3 cells
BXPC-3 = assay: Growth inhibition of human BXPC3 cells
[1] = Growth inhibition of human prostate cancer cells; conditions: Cancer cell lines

Compound: CC[C@H](CC[C@@H](C)C1CC[C@H]2C3[C@H](OC)C=C4C[C@@H](O)CC[C@]4(C)[C@H]3CC[C@]12C)C(C)C (some centres not stated) [SCHLEICHEOL 2]
- GI50 (P388): 15 µg/mL (≈ 33.7 µM)
- GI50 (SF-295): 1.9 µg/mL (≈ 4.27 µM)
- GI50 (KM-20L2): 1.2 µg/mL (≈ 2.7 µM)
- GI50 (NCI-H460): 2.2 µg/mL (≈ 4.95 µM)
- GI50 (OVCAR-3): 2.5 µg/mL (≈ 5.62 µM)
- GI50 (BXPC-3): 1.4 µg/mL (≈ 3.15 µM)
- GI50 [1]: 1.6 µg/mL (≈ 3.6 µM)

Compound: CC[C@H](C[C@@H](O)[C@@H](C)[C@H]1CC[C@H]2[C@@H]3[C@@H](OC)C=C4C[C@@H](O)CC[C@]4(C)[C@H]3CC[C@]12C)C(C)C [SCHLEICHERASTATIN 1]
- GI50 (P388): 0.19 µg/mL (≈ 0.412 µM)

Compound: CC[C@H](C[C@@H](O)[C@@H](C)C1CC[C@H]2[C@@H]3C(=O)C=C4C[C@@H](O)CC[C@]4(C)[C@H]3CC[C@]12C)C(C)C (some centres not stated) [SCHLEICHERASTATIN 5]
- GI50 (P388): 0.34 µg/mL (≈ 0.765 µM)

Compound: COC(=O)c1ccc(O)c(O)c1 [METHYL PROTOCATECHUATE]
- EC50 (P388; read-out: ED50 (the source's name)): 1.4 µg/mL (≈ 8.33 µM)

Compound: CC[C@H](CC[C@@H](C)C1CC[C@H]2[C@@H]3[C@@H](OC)C=C4C[C@@H](O)CC[C@]4(C)[C@H]3CC[C@]12C)C(C)C (some centres not stated) [SCHLEICHEOL 1]
- GI50 (P388): 14 µg/mL (≈ 31.5 µM)
- GI50 (SF-295): 3.2 µg/mL (≈ 7.2 µM)
- GI50 (KM-20L2): 2.5 µg/mL (≈ 5.62 µM)
- GI50 (NCI-H460): 1.8 µg/mL (≈ 4.05 µM)
- GI50 (OVCAR-3): 2.1 µg/mL (≈ 4.72 µM)
- GI50 (BXPC-3): 3.3 µg/mL (≈ 7.42 µM)
- GI50 [1]: 1.8 µg/mL (≈ 4.05 µM)

Compound: CC(C)[C@@H](C)C[C@@H](O)[C@@H](C)C1CC[C@H]2[C@@H]3C(=O)C=C4C[C@@H](O)CC[C@]4(C)[C@H]3CC[C@]12C (some centres not stated) [SCHLEICHERASTATIN 7]
- GI50 (P388): 0.78 µg/mL (≈ 1.81 µM)

Compound: CO[C@H]1C=C2C[C@@H](O)CC[C@]2(C)[C@H]2CC[C@]3(C)C([C@H](C)[C@H](O)C[C@@H](C)C(C)C)CC[C@H]3[C@H]12 (some centres not stated) [SCHLEICHERASTATIN 3]
- GI50 (P388): 1.2 µg/mL (≈ 2.69 µM)

Compound: CO[C@H]1C=C2C[C@@H](O)CC[C@]2(C)[C@H]2CC[C@]3(C)C([C@H](C)[C@H](O)C[C@H](C)C(C)C)CC[C@H]3[C@H]12 (some centres not stated) [SCHLEICHERASTATIN 4]
- GI50 (P388): 1.2 µg/mL (≈ 2.69 µM)

Compound: CC[C@H](C[C@@H](O)[C@@H](C)[C@H]1CC[C@H]2[C@@H]3[C@H](OC)C=C4C[C@@H](O)CC[C@]4(C)[C@H]3CC[C@]12C)C(C)C [SCHLEICHERASTATIN 2]
- GI50 (P388): 0.72 µg/mL (≈ 1.56 µM)

Compound: CC(C)[C@H](C)C[C@@H](O)[C@@H](C)C1CC[C@H]2[C@@H]3C(=O)C=C4C[C@@H](O)CC[C@]4(C)[C@H]3CC[C@]12C (some centres not stated) [SCHLEICHERASTATIN 6]
- GI50 (P388): 0.78 µg/mL (≈ 1.81 µM)
